Results as given in ChEMBL document CHEMBL1138145, “Enhanced FTase activity achieved via piperazine interaction with catalytic zinc” (Bioorg Med Chem Lett, 2006).

Assays:
[1] = target: T1, Protein farnesyltransferase (Homo sapiens, UniProt P49354+P49356); experiment: Inhibition of farnesyltransferase activity; assay type: protein-complex assay
[2] = target: T1, Protein farnesyltransferase; experiment: Inhibition of farnesyltransferase activity at 0.2 uM; assay type: protein-complex assay
[3] = AUC in rat at 10 mg/kg, po; assay type: ADME, organism-based; design: dose 10 mg/kg, route oral; details: plasma
[4] = target: T1, Protein farnesyltransferase; experiment: Inhibition of farnesyltransferase activity in COS7 cells transfected with Ras gene in soft agar proliferation; assay type: functional, cell-based, Chlorocebus aethiops, COS-7

Work on `CS(=O)(=O)N1CCC([C@@H]2c3ccc(Cl)cc3C=C(N3CCNCC3)c3cccnc32)CC1` yielded an IC50 [1] of 76 nM.
With `CS(=O)(=O)N1CCC([C@H]2c3ccc(Cl)cc3C(N3CCNCC3)=Cc3cccnc32)CC1` the inhibition [2] was 29%.
Compound `CS(=O)(=O)N1CCC([C@H]2c3ccc(Cl)cc3C=C(N3CCNCC3)c3cccnc32)CC1` has an IC50 [1] of 150 nM.
`CS(=O)(=O)N1CCC([C@@H]2c3ccc(Cl)cc3C(N3CCNCC3)=Cc3cccnc32)CC1` showed an IC50 [1] of 7 nM, an AUC [3] of 4 µM·h and an IC50 [4] of 72 nM.
